Measurements reported in ChEMBL document CHEMBL3301448, “MMV Malaria Box screening against Toxoplasma gondii and Entamoeba histolytica”.

How the values were obtained:
Entamoeba histolytica = assay: MMV: Primary screening was performed with each compound at a 30 uM final concentration and in triplicate in sealed 96-well polystyrene microtiter plates. Parasite inocula (100 ul) comprising 20000 parasites/ml were added to each well and grown at 37 degrees C in a humidified atmosphere of 5% CO2 for 72 h. Positive controls consisted of metronidazole at 1 mg/ml. The growth of E. histolytica trophozoites in each well was determined microscopically by measuring the diameters of the confluent cells in drug-containing wells relative to those in the nega- tive-control wells.; assay type: functional, organism-based
Toxoplasma gondii = assay: MMV: A total of 100ul of inoculum was added to each well (parasite/cell ratio, ~10:1; final volume, 200 ul). Six hours after inoculation, nonadherent parasites were removed, and 100 ul of complete DMEM (1% penicillin-streptomycin, 3% FBS) supplemented with inhibitors at different concentrations (2-fold serial dilutions starting from 30 uM) was added to all except the negative-control wells. Positive controls, consisting of pyrimethamine (PYR) and sulfadiazine (SDZ) (20-mg/ml stocks in DMSO), were tested at a 2mg/ml final concentration. Each test was performed in triplicate.; assay type: functional, organism-based; details: 6 h

Compound	IC50 (Entamoeba histolytica) [µM]	IC50 (Toxoplasma gondii) [µM]
O=C1c2ccccc2-c2nnc(-c3ccc(Br)cc3)cc21	> 30	> 30
CCOC(=O)C1=C(C)N=c2sc(=Cc3ccccc3O)c(=O)n2C1c1ccc(OC)c2ccccc12 (centres undefined)	> 30	> 30
CCOC(=O)C1=C(C)N=c2sc(=Cc3cc(Cl)ccc3O)c(=O)n2C1c1ccc(OC)cc1 (centres undefined)	> 30	24.9
Cc1nc2ccccc2c(O)c1CC=C(Cl)Cl	> 30	> 30
FC(F)(F)c1cccc(Nc2nc3ccccc3nc2Nc2cccc(C(F)(F)F)c2)c1	> 30	> 30
CC(=O)c1ccc(NC(=O)CSc2nc(-c3ccccc3Cl)ns2)cc1	> 30	14.9
O=C(NC1CCCCC1)C(c1cccs1)N(CCc1ccccc1)C(=O)c1ccco1 (centres undefined)	> 30	> 30
COc1ccc(C(=O)NC(c2ccc(Cl)cc2Cl)c2cc(Cl)c3cccnc3c2O)cc1 (centres undefined)	> 30	> 30
c1ccc2c(NCCCCCCNc3c4c(nc5ccccc35)CCCC4)c3c(nc2c1)CCCC3	> 30	> 30
O=C(NCCCN1CCC(N2CCCCC2)CC1)C1=Cc2cc(Br)ccc2OC1	> 30	> 30
Cc1ccnc(NC(c2cccc(OCc3ccccc3)c2)c2ccc3cccnc3c2O)c1 (centres undefined)	> 30	> 30
Nc1ccc(-c2nc3cc(Cc4ccc5[nH]c(-c6ccc(N)cc6)nc5c4)ccc3[nH]2)cc1	> 30	> 30
CCCCOC(=O)c1ccc(Nc2cc(C)nc3ccc(OC)cc23)cc1	> 30	> 30
O=c1cc(NC2CCN(CCCc3ccccc3)CC2)c2cc(Cl)ccc2o1	> 30	> 30
Cc1ccc(OCCCCCCNCCO)c(C)c1	> 30	> 30
COc1ccc(C2NCCc3c2[nH]c2ccccc32)cc1CN1CCN(c2ccc(F)cc2)CC1 (centres undefined)	> 30	> 30
CCOc1ccc(-n2cc(-c3ccccc3)c3c(SCc4cc(C)ccc4C)ncnc32)cc1	> 30	11.2
Cc1ccc(C)c(Cn2c(N3CCC(C(=O)NCc4cccs4)CC3)nc3ccccc32)c1	> 30	> 30
Cc1ccccc1OCCSc1nc2ccc(NC(=O)c3cccs3)cc2s1	> 30	> 30
CC1CCN(Cc2c(O)ccc3cc(-c4nc5ccccc5s4)c(=O)oc23)CC1	> 30	> 30
Cc1ccc2cc3c(N)c4c(C)ccc(C)c4nc3nc2c1	> 30	> 30

Compound	IC50 (Entamoeba histolytica) [µM]	IC50 (Toxoplasma gondii) [µM]
CC(C)CCNCC(O)Cn1c2ccccc2c2ccccc21 (centres undefined)	> 30	> 30
COc1ccc(C2C(C(=O)Nc3cccc(OC)c3)c3ccccc3C(=O)N2C2CCCCC2)cc1 (centres undefined)	> 30	> 30
CCOC(=O)c1cnc2ccc(Cl)cc2c1NCCCN(C)C	> 30	> 30
c1ccc2c(NCCc3c[nH]c4ccccc34)c3ccccc3nc2c1	> 30	3.05
O=C(Nc1ccc(C23CC4CC(CC(c5ccccc5)(C4)C2)C3)cc1)c1cccs1	> 30	> 30
CCN(CC)CCCNc1ccnc2cc3ccccc3cc12	> 30	> 30
O=C1c2ccccc2C2=Nc3ccccc3SC(c3cccc(F)c3)C12 (centres undefined)	> 30	18.7
Cc1ccccc1OCCSc1nc2ccc(NC(=O)c3ccccc3)cc2s1	> 30	> 30
CCOC(=O)c1cnc2c(C)cccc2c1Nc1ccc(C(C)=O)cc1	> 30	> 30
O=C(Nc1ccc(-c2nc3cc4ccccc4cc3[nH]2)cc1)c1cccc(Br)c1	> 30	> 30
Cc1ccc(C2CC(C(F)(F)F)n3nc(C(=O)N4CCN(C(c5ccccc5)c5ccccc5)CC4)cc3N2)cc1 (centres undefined)	> 30	> 30
Cc1ccc2nc(C)cc(Nc3cccc(C(F)(F)F)c3)c2c1	> 30	> 30
CC(C)(C)c1ccc(C(=O)Nc2c3c(nn2-c2cccc(Cl)c2)CSC3)cc1	> 30	> 30
COc1cccc(C(=O)NC(c2ccc(C)cc2)c2cc(Cl)c3cccnc3c2O)c1 (centres undefined)	> 30	> 30
CCCCCCn1c(=N)n(CC(O)COc2cccc(C)c2)c2ccccc21 (centres undefined)	> 30	> 30
COc1ccc(-c2cc(=O)oc3c4c(ccc23)OCN(Cc2ccc(F)cc2)C4)cc1	> 30	> 30
CCOC(=O)C1(Cc2ccccc2)CCN(Cc2cccc(OC)c2O)CC1	> 30	> 30
CCCOCc1cc(CN2CCN(c3cccc(Cl)c3)CC2)c(O)c2ncccc12	> 30	> 30
Oc1ccc(C(=C(Cl)Cl)c2ccc(O)cc2)cc1	> 30	> 30
CCOc1ccc2c(c1)CN(Cc1ccc(Cl)cc1)CO2	> 30	> 30
CC(C)(C)c1ccc2c(c1)CN(Cc1ccc(Cl)cc1)CO2	> 30	20.4

Compound	IC50 (Entamoeba histolytica) [µM]	IC50 (Toxoplasma gondii) [µM]
CCCCC(O)(c1ccc(Cl)cc1)C(CN1CCOCC1)c1ccc(Cl)cc1 (centres undefined)	> 30	> 30
COc1ccc(OC)c(C2C3=C(CC(C)(C)CC3=O)N(c3ccc(Cl)c(Cl)c3)C3=C2C(=O)CC(C)(C)C3)c1	> 30	> 30
COc1ccc(C(=O)NC(c2ccccc2Cl)c2cc(Cl)c3cccnc3c2O)cc1 (centres undefined)	> 30	> 30
Cc1cc(=O)oc2c1ccc1oc(C(=O)c3ccccc3)c(C)c12	> 30	> 30
COc1ccc2c(c1OC)C(=O)N1c3ccccc3N=C(c3ccc(C)cc3)CC21 (centres undefined)	> 30	> 30
CCCCCCc1cc(O)c2c3c(c(=O)oc2c1)CCC(C)C3 (centres undefined)	> 30	> 30
CCCc1c(C)nc2ccc(Br)cc2c1O	> 30	> 30
COc1ccc(CCNC(=O)c2cc(S(=O)(=O)N3CC(C)CC(C)C3)ccc2Sc2ccc(F)cc2)cc1OC (centres undefined)	> 30	> 30
CCOc1ccc(Nc2c3ccccc3nc3ccccc23)cc1	> 30	> 30
CC1=C(CC(=O)c2cccc([N+](=O)[O-])c2)C(=O)c2ccccc2C1=O	> 30	> 30
OC1CCCCC1C1(NC(=S)Nc2ccccc2)CCCCC1 (centres undefined)	> 30	> 30
OC1=C2C(=Nc3ccccc3SC2c2ccc(Br)cc2)c2ccccc21 (centres undefined)	> 30	> 30
COc1ccc(C)c2sc(N(Cc3cccnc3)C(=O)c3ccc(C#N)cc3)nc12	> 30	> 30
CCCCCCC(O)(c1ccc(F)cc1)C(CN1CCOCC1)c1ccccc1 (centres undefined)	> 30	> 30
COc1cc(OC)cc(N2C(=O)N(Cc3ccc(C(C)(C)C)cc3)c3ccccc3S2(=O)=O)c1	> 30	> 30
CCCCCn1c(=N)n(CC(O)COc2cccc(C)c2)c2ccccc21 (centres undefined)	> 30	17.9
COc1ccccc1N1C(=N)SC(=Cc2ccc(OCc3ccccc3F)cc2)C1=O	> 30	> 30
CCN1CCN(c2c(C(=O)c3ccccc3)cnc3cc(OC)c(OC)cc23)CC1	> 30	> 30
Cc1ccc(S(=O)(=O)c2c(COC(=O)c3cccc(C)c3)c(-c3ccccc3)nn2C)cc1	> 30	> 30
CCOC(=O)c1c[nH]c2c(CC)cccc2c1=O	> 30	> 30
